Results on 6 molecules are retold here after publication PMC10216605, “Developing In Vitro Models to Define the Role of Direct Mitochondrial Toxicity in Frequently Reported Drug-Induced Rhabdomyolysis” (Biomedicines, 2023).

Where two headings read alike, the source gives them in different places.

The test system of series [1] is L6 cells. As to conditions: 6 h exposure.
Protocol: The mitochondrial stress test allowed confirmation of mitotoxicity and further identification of the specific mechanisms through quantification of OXPHOS parameters: basal respiration (BR), ATP-linked respiration (ALR), and spare respiratory capacity (SRC). On the day of the assay, for the analysis of the acute injection of the drug on differentiated myotubes, the differentiation media was replaced with 175 µL of unbuffered Seahorse Assay media supplemented with 25 mM of glucose, 4 mM of L-glutamine, 1 mM of sodium pyruvate, and 5 mM of HEPES pre-warmed to 37 °C, then incubated in a CO2 free incubator at 37 °C for 1 h. Alternately, in the pre-treatment strategy, differentiated myotubes were pre-treated with the drug for 5 h in differentiation medium, then transferred to a CO2-free incubator at 37 °C for 1 h. Next, the differentiation media were replaced with 175 µL of unbuffered Seahorse Assay media supplemented with the constituents stated above. Briefly, using the XF^e96 instrument (Seahorse extracellular flux analyser, Agilent Technologies, Santa Clara, CA, USA), the oxygen partial pressure in each well was allowed to reach equilibrium for 10 min. The oxygen consumption rate (OCR) was measured three times at baseline; then, there was a 3 min mix for each measurement followed by a 3 min wait. […] In the acute injection method, the drug injection was only performed at the end of the basal measurement cycles, followed by the mitochondrial inhibitors described above. The duration of the assay was 120 min (acute injection) and 90 min (pre-treatment strategy). From each mitochondrial stress test was determined the OCR parameters of non-mitochondrial respiration (NMR = lowest measurement after rotenone/antimycin A); basal respiration (BR = last measurement before oligomycin − NMR); proton-leak (PL = BR − lowest respiration after oligomycin); ATP-linked respiration (ALR = BR − PL); maximum respiratory capacity (MRC = highest measurement after FCCP − NMR); and spare respiratory capacity (SRC = MRC − BR) [42, 43].
The next series concerns HSKMDC. The experiment in a line: Mitochondrial stress test (Seahorse XFe96 respirometry) in HSKMDC. As to conditions: acute injection. In kind it is cell-based, human. How it is done: On the day of the assay, for the analysis of the acute injection of the drug on differentiated myotubes, the differentiation media was replaced with 175 µL of unbuffered Seahorse Assay media supplemented with 25 mM of glucose, 4 mM of L-glutamine, 1 mM of sodium pyruvate, and 5 mM of HEPES pre-warmed to 37 °C, then incubated in a CO2 free incubator at 37 °C for 1 h. Alternately, in the pre-treatment strategy, differentiated myotubes were pre-treated with the drug for 5 h in differentiation medium, then transferred to a CO2-free incubator at 37 °C for 1 h. Next, the differentiation media were replaced with 175 µL of unbuffered Seahorse Assay media supplemented with the constituents stated above. Briefly, using the XF^e96 instrument (Seahorse extracellular flux analyser, Agilent Technologies, Santa Clara, CA, USA), the oxygen partial pressure in each well was allowed to reach equilibrium for 10 min. The oxygen consumption rate (OCR) was measured three times at baseline; then, there was a 3 min mix for each measurement followed by a 3 min wait. […] In the acute injection method, the drug injection was only performed at the end of the basal measurement cycles, followed by the mitochondrial inhibitors described above. The duration of the assay was 120 min (acute injection) and 90 min (pre-treatment strategy). From each mitochondrial stress test was determined the OCR parameters of non-mitochondrial respiration (NMR = lowest measurement after rotenone/antimycin A); basal respiration (BR = last measurement before oligomycin − NMR); proton-leak (PL = BR − lowest respiration after oligomycin); ATP-linked respiration (ALR = BR − PL); maximum respiratory capacity (MRC = highest measurement after FCCP − NMR); and spare respiratory capacity (SRC = MRC − BR).

Series [2] can be described thus: FAERS analysis of reported rhabdomyolysis cases per suspect drug. As to conditions: for (%) of total rhabdomyolysis cases / Number of Rhabdomyolysis Cases / Number of Rhabdomyolysis Cases (n = 6583): FAERS 2004 to 31 March 2020; for (%) of total rhabdomyolysis cases: of 27,140 cases; for Number of Rhabdomyolysis Cases: total 27,140 rhabdomyolysis cases, some cases with more than one suspected drug; for Number of Death Cases (n = 576): monotherapy rhabdomyolysis cases with fatal outcome; for (%) of monotherapy rhabdomyolysis cases: of 6583 cases; for Number of Rhabdomyolysis Cases (n = 6583): suspected drug reported as a single drug used (monotherapy).
Protocol: (§4) Due to the quarterly updating of the database by the FDA, the searches were performed using the term “rhabdomyolysis” on one occasion to ensure the data were extracted at that specified period. All individual files were downloaded and saved from this one timepoint to specify the analysis period used in this study. Further refinement was performed using Microsoft Excel to extract only cases where the suspect drug was reported as a monotherapy, using the generic name of the suspect drugs. To ensure data accuracy, any case reported by a consumer or company underwent further checks to ensure it had not been previously reported by a healthcare provider, by confirming that no duplication of case ID was present.

Series [3] relates to L6 cells. The experiment in a line: Acute metabolic switch assay (cellular ATP content, glucose vs galactose media) in L6 differentiated myotubes. To be noted: for IC50: Rattus norvegicus, L6, 2 h. The protocol:
They were then seeded into collagen-coated wells (50 µg/mL in 0.02 M of acetic acid) at a density of 16,000 cells/100 μL/well (96 well plates) and 10,000 cells/100 μL/well (XF 96-well cell culture microplates). The cells were next incubated for 24 h in complete growth medium to promote adherence, after which the growth medium was removed and the cells washed twice with 1× HBSS. The L6 myoblasts were then cultured in differentiation medium consisting of high-glucose DMEM (25 mM) supplemented with L-glutamine (4 mM), sodium pyruvate (1 mM), HEPES (5 mM), and horse serum (2% v/v). Fresh differentiation medium was provided every 48 h for 7 days.
(§1) On the day of the assay, the media on the differentiated myotubes were replaced with either serum-free high-glucose (DMEM, 25 mM of glucose, 4 mM of L-glutamine, 1 mM of sodium pyruvate, and 5 mM of HEPES) or serum-free galactose (DMEM, 10 mM of galactose, 6 mM of L-glutamine, 1 mM of sodium pyruvate, and 5 mM of HEPES) media (100 µL) for 2 h (37 °C, 5% CO2). The glucose and galactose media were removed and replaced with drug-dosing solutions in either glucose or galactose media as appropriate, before incubation (2 h, 37 °C, 5% CO2). […] Vehicle control was included in each experiment.
(§2) The cellular ATP content was measured using a bioluminescence assay kit, alongside the concomitant measurement of protein using a bicinchoninic acid (BCA) assay kit to normalise ATP data to the total protein. Briefly, the cells were lysed using ATP lysis buffer (50 µL/well) and the plate was shaken (5 min). According to the manufacturer’s instructions, 40 µL of ATP reagent was added to each well containing 5 µL of cell lysate in a white 96-well plate. The […] luminescence signal was measured immediately using a plate reader (Varioskan, Thermo Scientific, Schaumburg, IL USA).

For series [4] the following is noted: human.
Protocol: as §4
Series [5] relates to primary human skeletal muscle-derived cells (HSKMDC). Description: cells. In kind it is cell-based. To be noted: for IC50: Homo sapiens, Myotube, 2 h. The protocol: (§3) HSKMDC myoblasts were collected by trypsinisation using trypsin-EDTA (0.05%) upon reaching 50% confluence and seeded into collagen-coated wells, at a density of 20,000 cells/100 μL/well (96 well plates) and 25,000 cells/100 μL/well (XF 96-well cell culture microplates). After 24 h, the cells were washed twice with 1× PBS (-/-), and growth media were replaced with differentiation medium containing DMEM low-glucose media (glucose 5 mM), L-glutamine (4 mM), sodium pyruvate (1 mM) supplemented with 2% (v/v) horse serum, and (10 nM) human insulin. The medium was refreshed every 48 h for 5 days.
as §1
Cytotoxicity was detected using a lactate dehydrogenase (LDH) assay kit. Briefly, according to the manufacturers’ instructions, 25 µL of the supernatant and 10 µL of cell lysate were incubated with 50 µL of LDH reagent for 30 min in the dark. Samples were read at 490 nm using a plate reader.

Series [6] shares this test system. The experiment in a line: cells. Format: cell-based. To be noted: 2 h exposure; for IC50: Homo sapiens, Myotube, mean ± S.D. (n = 3). The protocol: as §3, §1, §2
Where [7] appears, read: L6 cells, 2 h exposure, based on IC50-ATPglu vs IC50-ATPgal.

On to `CC(C)OC(=O)C(C)(C)Oc1ccc(C(=O)c2ccc(Cl)cc2)cc1` [Fenofibrate], for which the “Classification from pattern of changes in BR, ALR and SRC” value (from here on “Classification from pattern of changes”) in the series with L6 cells [1] is reported as “direct inhibitors of the electron transport chain”. Also, in the series on HSKMDC, the “Classification from pattern of changes” value is reported as “direct inhibitors of the electron transport chain”; the “Concentration at which significant reduction of ATP-linked respiration was first observed” value is 3.6 µM. In series [2], the “(%) of total rhabdomyolysis cases” value is on record as 1.7%, the “Number of Rhabdomyolysis Cases” value is reported as 449, the “Number of Death Cases (n = 576)” value is 6 and the “(%) of monotherapy rhabdomyolysis cases” value stood at 1.9%. The “Number of Rhabdomyolysis Cases (n = 6583)” value (“Number … (n = 6583)” for short) in series [2] is on record as 126. Besides, in the series with L6 cells [3] (setting [7]), the “Mitotoxicity classification in acute metabolic switch assay” value (“Mitotoxicity classification” for short) is on record as “containing a mitochondrial liability”.
`CCCCCCCCCC(=O)N[C@@H](Cc1c[nH]c2ccccc12)C(=O)N[C@H](CC(N)=O)C(=O)N[C@@H](CC(=O)O)C(=O)N[C@@H]1C(=O)NCC(=O)N[C@@H](CCCN)C(=O)N[C@@H](CC(=O)O)C(=O)N[C@H](C)C(=O)N[C@@H](CC(=O)O)C(=O)NCC(=O)N[C@H](CO)C(=O)N[C@@H]([C@H](C)CC(=O)O)C(=O)N[C@@H](CC(=O)c2ccccc2N)C(=O)O[C@@H]1C` [Daptomycin]: in series [2], the “Number of Death Cases (n = 576)” value worked out at 18. Moreover, in series [4], the “(%) of monotherapy rhabdomyolysis cases” value amounted to 3.5%, the “(%) of total rhabdomyolysis cases” value turned out to be 1.4%, the “Number of Rhabdomyolysis Cases” value is listed as 380 and the “Number … (n = 6583)” value turned out to be 227. The “ROR (reported odds ratio)” value in series [4] was found to be 3.2. For the same molecule, in the series with L6 cells [3] (L6 cells, 2 h exposure, ratio ≥ 2 = mitotoxic), the IC50-ATPglu/IC50-ATPgal is ~1 (n/d). Moreover, the IC50-ATPglu/IC50-ATPgal in the series with L6 cells [3] (L6 cells, 2 h exposure, ratio ≥ 2 = mitotoxic, listed as daptomycin) is reported as 1. Besides, in the series with L6 cells [3] (read-out: ATP IC50 Galactose), the half-maximal inhibitory concentration (IC50) is > 100 µM. Also, in the series with L6 cells [3] (read-out: ATP IC50 Glucose), the half-inhibitory concentration (IC50) is > 100 µM.
Consider `CC(C)C[C@H](CN)CC(=O)O` [Pregabalin], for which, in the series with L6 cells [1], the “Classification from pattern of changes” value is on record as “direct inhibitors of the electron transport chain”. In series [2], the “(%) of total rhabdomyolysis cases” value was 1.6%, the “Number of Rhabdomyolysis Cases” value is 442, the “Number of Death Cases (n = 576)” value is 13 and the “(%) of monotherapy rhabdomyolysis cases” value is given as 2.0%. In addition, the “Number … (n = 6583)” value in series [2] is recorded as 132. Also, the 50% inhibitory concentration (IC50) in the series on L6 cells [3] (read-out: ATP IC50 Glucose) was > 300 µM.
In the case of `CC(C)c1cccc(C(C)C)c1O` [Propofol], the “Classification from pattern of changes” value in the series on L6 cells [1] was “direct inhibitors of the electron transport chain”. Also, in series [2], the “(%) of total rhabdomyolysis cases” value was 1.6%, the “Number of Rhabdomyolysis Cases” value is 434, the “Number of Death Cases (n = 576)” value worked out at 70 and the “(%) of monotherapy rhabdomyolysis cases” value came out at 2.7%. Besides, in series [2], the “Number … (n = 6583)” value was found to be 179. Further, the “ROR (reported odds ratio)” value in series [2] (rhabdomyolysis with suspected drug vs all other drugs in FAERS) was determined as 2.2. Further, the “Mitotoxicity classification” value in the series with L6 cells [3] is given as “multi-mechanistic”. Moreover, the half-maximal inhibitory concentration (IC50) in the series on L6 cells [3] (read-out: ATP IC50 Galactose) came to 242 ± 13.4 µM. In addition, the half-maximal inhibitory concentration (IC50) in the series with L6 cells [3] (read-out: ATP IC50 Glucose) was > 300 µM.
For the molecule `C=C(C)[C@H]1Cc2c(ccc3c2O[C@@H]2COc4cc(OC)c(OC)cc4[C@@H]2C3=O)O1` [Rotenone], the IC50-ATPglu/IC50-ATPgal in the series with L6 cells [3] (L6 cells, 2 h exposure, […]) is listed as >138.9 (<0.0001); in series [6], >318.4 (<0.0001); in series [6] (listed as rotenone) it was > 318. Besides, the IC50 was 0.036 ± 0.008 µM in the series on L6 cells [3] (read-out: ATP IC50 Galactose); > 5 µM in the series with L6 cells [3] (read-out: ATP IC50 Glucose); > 5 µM in series [5] (read-out: LDH IC50 Galactose); > 5 µM in series [5] (read-out: LDH IC50 Glucose); 0.016 ± 0.007 µM in series [6] (galactose serum-free media, read-out: ATP IC50 Galactose); > 5 µM in series [6] (glucose serum-free media, read-out: ATP IC50 Glucose). Also, in series [5] (HSKMDC, 2 h exposure, galactose media), the “IC50-LDH gal/ IC50-ATP al” value is >312.5.
For `Cc1nc2n(c(=O)c1CCN1CCC(c3noc4cc(F)ccc34)CC1)CCCC2` [Risperidone], the “Classification from pattern of changes” value in the series on L6 cells [1] and in the series with HSKMDC was “direct inhibitors of the electron transport chain” in each case. The “Concentration at which significant reduction of ATP-linked respiration was first observed” value with HSKMDC turned out to be 11 µM. Further, the “Number of Death Cases (n = 576)” value in series [2] is recorded as 7. The “Mitotoxicity classification” value with L6 cells [3] (setting [7]) is on record as “containing a mitochondrial liability”.
